Holding throughout (experiment): NCI tumour cell line growth inhibition, 48 h
The test system of assay [1] is A549 NSCLC.
For assay [2], the system named is NCI-H226 lung.
For assay [3], the system named is EKVX NSCLC.
Assay [4] relates to KM12 colon.
Assay [5] deals with K-562 leukemia.
Assay [6] deals with MDA-MB-435.
Assay [7] relates to CCRF-CEM leukemia.
Assay [8] deals with SK-OV-3 ovarian.

“And” between values parts separate entries of the source, which are not always exact repeats. Equal values may be shown once.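 These data come from cells grown in 96-well plates and exposed to compound for 48 hours at five concentrations. Abbreviation: GI50, concentration required for 50% inhibition of growth. At the TGI there is no net growth.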 Bounds are passed on as bounds.

With `COC(=O)c1c(C)cccc1/C=C1\Cc2ccc(C)c(C)c2C1=O`, the TGI in assay [1], in assay [2], in assay [3], in assay [4] and in assay [5] was over 100 µM in each case.
In the case of `Cc1cc2nc3c(C#N)c(-c4ccccc4)/c(=C\Nc4ccc(F)cc4)c(=O)n3c2cc1C`, the TGI in assay [6], in assay [1], in assay [2], in assay [3], in assay [7] and in assay [8] was over 100 µM in each case. Also, the TGI in assay [4] is over 100 µM.
For the compound `O=[N+]([O-])c1cccc2nc3ccccc3c(NCCCCCNc3c4ccccc4nc4cccc([N+](=O)[O-])c34)c12`, the GI50 was 0.105 µM and 0.0111 µM in assay [6]; 0.0249 µM in assay [2]; 0.0346 µM in assay [3]; 0.08 µM in assay [8]. Further, the TGI in assay [6] was 0.259 µM and 0.0288 µM; in assay [2] it was 0.562 µM and 1.94 µM; in assay [3] it was 0.353 µM and 1.25 µM; in assay [8], 1.25 µM and 1.14 µM; in assay [4], 0.249 µM and 0.029 µM; in assay [5], 0.678 µM.
Regarding `COC1(OC)CCc2c(sc3ncnc(Nc4cccc(Br)c4)c23)C1`, the TGI in assay [6] was over 100 µM; in assay [1], over 100 µM; in assay [2] it was over 100 µM; in assay [3], 59.2 µM; in assay [8], over 100 µM; in assay [4], over 100 µM. This compound returned a TGI in assay [5] of over 100 µM.
On to `CC(SC(=S)N1CCOCC1)C(=O)Nc1nnc(-c2ccc(Cl)cc2)o1` (stereo not drawn), for which the TGI in assay [6], in assay [1], in assay [2] and in assay [8] was over 100 µM throughout.
On to `O=C(CCc1cc(O)cc(O)c1)NCCc1cc(O)cc(OCc2ccccc2)c1`, for which the TGI in assay [6], in assay [1], in assay [2], in assay [3], in assay [8] and in assay [4] was over 100 µM in each case. This compound gave a TGI in assay [5] of 96.3 µM.
As to `Cc1cccc2sc(NC(=O)NS(=O)(=O)n3cnc4ccccc43)nc12`, the TGI in assay [6], in assay [1], in assay [2], in assay [3], in assay [7] and in assay [8] was over 100 µM in each case. Moreover, in assay [4], the TGI is over 100 µM.
As to `O=C(CSCC(=O)N/N=C/c1cccc(O)c1)N/N=C/c1cccc(O)c1`, the TGI in assay [6], in assay [1], in assay [2], in assay [3], in assay [8] and in assay [4] was over 100 µM each time. The same compound had a TGI in assay [5] of over 100 µM.
On to `CCOC(=O)C1(C/C=C\CBr)CCCC1=O` (stereo not drawn), for which the TGI was 57.2 µM in assay [6]; over 100 µM in assay [1]; 88.6 µM in assay [2]; over 100 µM in assay [3]; over 100 µM in assay [8]; over 100 µM in assay [4].
Take `O=C(NCCN(CCNC(=O)c1cccc(O)c1O)CCNC(=O)c1cccc(O)c1O)c1cccc(O)c1O`: the TGI was over 100 µM in assay [6]; over 100 µM in assay [1]; 85.6 µM in assay [2]; over 100 µM in assay [3]; over 100 µM in assay [8]; over 100 µM in assay [4]. Also, the TGI in assay [5] is over 100 µM.
As to `O=C1CC(c2cccc(Cl)c2)Nc2ccc(N3CCCC3)cc21` (stereo not drawn), the GI50 in assay [1] and in assay [4] was 0.0153 µM each time. The TGI in assay [1] is over 100 µM; in assay [2] it was 0.606 µM and 0.338 µM; in assay [3], over 100 µM; in assay [8] it was over 100 µM; in assay [4] it was 0.117 µM; in assay [5], 0.017 µM.
As to `COc1cc(C2c3cc4c(cc3OC(NN)C2C)OCO4)cc(OC)c1O` (stereo not drawn), the TGI in assay [1] worked out at 53.5 µM; in assay [2] it was 62 µM; in assay [4], 41.7 µM; in assay [5] it was 12.6 µM.
Regarding `CC(C)C(Cl)CCC(C)(Cl)C(=O)CBr` (stereo not drawn), the TGI in assay [6] is 14 µM; in assay [1], 53.4 µM; in assay [2], 44.5 µM; in assay [3], 32.8 µM; in assay [7] it was over 100 µM; in assay [8], 39.1 µM. The TGI in assay [4] is 29.8 µM.
As to `CC1(C)O[C@@H]2[C@@H](COC(C)(C)O[C@H]2C2SCCCS2)O1`, the TGI in assay [6], in assay [1], in assay [8], in assay [4] and in assay [5] was over 100 µM each time.
Regarding `COC(=O)C1CCC(=O)N1CN(C(C)=O)c1cccc(O)c1` (stereo not drawn), the TGI in assay [6], in assay [1], in assay [2], in assay [3], in assay [8] and in assay [4] was over 100 µM throughout. This compound also returned a TGI in assay [5] of over 100 µM.
